Series [1] has as its system P. falciparum clone W2 (chloroquine-resistant). In words: In vitro antiplasmodial activity, Giemsa-stained smear parasitaemia after 48 h. It is filed as cell-based, Plasmodium falciparum. Conditions: for IC50: Plasmodium falciparum; for SI (selectivity index): SI = LC50 HeLa/IC50 Plasmodium falciparum. The procedure: The human red blood cells and plasma were ceded by the Fundação Hemominas-Hemonúcleo Divinópolis. The synchronization of the parasites was achieved by sorbitol treatment and parasitaemia was determined microscopically in Giemsa-stained smears.
Briefly, ring-stage parasites in sorbitol-synchronized blood cultures were added to 96-well culture plates with 2% parasitaemia and 2% haematocrit and then incubated with the test compounds. The compounds were diluted in complete media, from 10 mg/mL stock solutions in DMSO, at various concentrations (0.1–30 µM). After 48 h incubation, Giemsa-stained blood smears were taken for microscopic evaluation of parasitaemia. All experiments were performed in triplicate.

A further series is described as follows: in vitro. In kind it is cell-based. To be noted: human. The procedure:
The cytotoxicity of the compounds was assessed with the HeLa human cell line (cervix adenocarcinoma ATCC# CCl-2) using the MTT (3-(4,5-dimethylthiazol-2-yl)-2,5-diphenyltetrazolium bromide) (Sigma, St. Louis, MO, USA) colorimetric method. Briefly, the cells were plated in 96-well plates (1 × 10^5 cells/well) and incubated for 24 h at 37 °C in a humidified atmosphere with 5% CO2. After 24 h, the wells were washed with culture medium (RPMI + 10% inactivated fetal calf serum + 2 mM L-glutamine) and incubated with the compounds at various concentrations (0.05 to 500 µM). After 48 h incubation, the plates were treated with MTT. The colorimetric reading was performed in a microplate reader Spectramax M5e (Molecular Devices, Sunnyvale, CA, USA) at 550 nm. Cytotoxicity was scored as the percentage reduction in absorbance versus untreated control cultures. All experiments were performed in triplicate. […] The IC50 and LC50 values were calculated using OriginPro8.0 (OriginLab Corporation, Northampton, MA, USA) software. A selectivity index (SI), corresponding to the ratio between the cytotoxic and antiparasitic activities of each compound, was calculated as follows: SI = LC50 HeLa/IC50 Plasmodium falciparum

Where [2] appears, read: P. falciparum W2, 48 h incubation, triplicate, mean ± spread, read-out: IC50, in vitro antiplasmodial activity.
Setting [3] is: P. falciparum W2, from IC50, read-out: pIC50 (converted).

Like-named read-outs stand apart in the source and are kept apart here.

On to `CCN(CC)CCCC(C)Nc1ccnc2cc(Cl)ccc12` (centres unmarked) [CQ, chloroquine, reference compound], for which the IC50 in series [1] (W2, 48 h, read-out: IC50, in vitro antiplasmodial activity) is 0.45 ± 0.04 µM; in series [1] (W2, read-out: pIC50 (converted)), 0.454 µM.

`COc1ccc(/C=C/C(=O)c2ccccc2)cc1S(=O)(=O)N1CCOCC1` [Compound 1a]: the IC50 was 2.06 ± 0.05 µM in series [1] (setting [2]) and 2.07 µM in series [1] (setting [3]). In addition, the “SI (selectivity index)” value in series [1] turned out to be 9.0. Besides, the CC50 – broadly, the concentration at which the toxic effect on the cells reaches its halfway point – at 48 h in the series “in vitro” came to 18.6 ± 1.26 µM.

Turning to `COc1ccc(/C=C/C(=O)c2ccccc2)cc1S(=O)(=O)N(C)C` [Compound 1b], the IC50 in series [1] (setting [2]) is 5.79 ± 0.12 µM; in series [1] (setting [3]), 5.79 µM. The “SI (selectivity index)” value in series [1] is reported as 3.6. In addition, the CC50 at 48 h in “in vitro” is 20.7 ± 1.62 µM.

For the compound `COc1ccc(/C=C/C(=O)c2ccccc2)cc1S(=O)(=O)Nc1ccccc1` [Compound 1c], the IC50 in series [1] (setting [2]) was 2.03 ± 0.28 µM; in series [1] (setting [3]) it was 2.03 µM. Further, the “SI (selectivity index)” value in series [1] is given as 5.7. The compound also displayed a CC50 at 48 h in the series “in vitro” of 11.5 ± 0.23 µM.

For the compound `COc1ccc(NS(=O)(=O)c2cc(/C=C/C(=O)c3ccccc3)ccc2OC)cc1` [Compound 1d], the figures for the IC50 in series [1] (setting [2]) and in series [1] (setting [3]) were 3.64 ± 0.4 µM and 3.64 µM, respectively. For the same compound, the “SI (selectivity index)” value in series [1] is listed as 3.0. In the series “in vitro”, this compound yielded a CC50 at 48 h of 11.1 ± 1.96 µM.

Regarding `COc1ccc(/C=C/C(=O)c2ccccc2)cc1S(=O)(=O)Nc1ccc(Cl)cc1` [Compound 1e], the IC50 in series [1] (setting [2]) is 2.83 ± 0.21 µM; in series [1] (setting [3]), 2.82 µM. In series [1], the “SI (selectivity index)” value was 3.7. In the series “in vitro”, the CC50 at 48 h was determined as 10.5 ± 2.27 µM.

`COc1ccc(/C=C/C(=O)c2ccccc2)cc1S(=O)(=O)Nc1ccc(Cl)c(Cl)c1` [Compound 1f]: the results for the IC50 in series [1] (setting [2]) and in series [1] (setting [3]) were 4.33 ± 0.06 µM and 4.33 µM, respectively. Further, the “SI (selectivity index)” value in series [1] turned out to be 4.4. Also, half-maximal cytotoxicity in the series “in vitro” (CC50 at 48 h) was put at 19 ± 0.43 µM.

With `CCN(CC)S(=O)(=O)c1cc(/C=C/C(=O)c2ccccc2)ccc1OC` [Compound 1g], the results for the IC50 in series [1] (setting [2]) and in series [1] (setting [3]) were 11 ± 0.57 µM and 11 µM, respectively. In series [1], the “SI (selectivity index)” value is 1.9. Further, in “in vitro”, the CC50 at 48 h was 20.7 ± 1.6 µM.

On to `COc1ccc(/C=C/C(=O)c2ccccc2)cc1S(=O)(=O)NCc1ccccc1` [Compound 1h], for which the IC50 in series [1] (setting [2]) is 1.96 ± 0.02 µM; in series [1] (setting [3]), 1.96 µM. In series [1], the “SI (selectivity index)” value was 4.8. Besides, in the series “in vitro”, it took 9.42 ± 2.09 µM to reach half-maximal cytotoxicity (CC50 at 48 h).

With `COc1ccc(/C=C/C(=O)c2ccccc2)cc1S(=O)(=O)N1CCCC1` [Compound 1i], the IC50 was 2.07 ± 0.22 µM in series [1] (setting [2]) and 2.07 µM in series [1] (setting [3]). The “SI (selectivity index)” value in series [1] was 4.4. The midpoint of cytotoxicity in the series “in vitro”, the CC50 at 48 h, lay at 9.18 ± 1.51 µM.

For the origin of these results see PMC6269736, “Antimalarial Activity of 4-Metoxychalcones: Docking Studies as Falcipain/Plasmepsin Inhibitors, ADMET and Lipophilic Efficiency Analysis to Identify a Putative Oral Lead Candidate” (Molecules, 2013).
